≈ marks a conversion by molar mass, not a printed value.
Tests used:
Pseudomonas aeruginosa [1] = experiment: Antibacterial activity against Pseudomonas aeruginosa ATCC 9027 after 48 hrs by broth microdilution method; format: functional; conditions: ATCC 9027, 48 h
Candida albicans [2] = experiment: Antifungal activity against Candida albicans ATCC 44859 after 24 hrs by broth microdilution method; format: functional; conditions: ATCC 44859, 24 h
Candida albicans [3] = experiment: Antifungal activity against Candida albicans ATCC 44859 after 48 hrs by broth microdilution method; format: functional; conditions: ATCC 44859, 48 h
Candida tropicalis [4] = experiment: Antifungal activity against Candida tropicalis 156 after 24 hrs by broth microdilution method; format: functional; conditions: Candida tropicalis, 156, 24 h
Candida tropicalis [5] = experiment: Antifungal activity against Candida tropicalis 156 after 48 hrs by broth microdilution method; format: functional; conditions: Candida tropicalis, 156, 48 h
Pichia kudriavzevii [6] = experiment: Antifungal activity against Candida krusei E28 after 24 hrs by broth microdilution method; format: functional; conditions: E28, 24 h
Pichia kudriavzevii [7] = experiment: Antifungal activity against Candida krusei E28 after 48 hrs by broth microdilution method; format: functional; conditions: E28, 48 h
Nakaseomyces glabratus [8] = experiment: Antifungal activity against Candida glabrata 20/I after 24 hrs by broth microdilution method; format: functional
Nakaseomyces glabratus [9] = experiment: Antifungal activity against Candida glabrata 20/I after 48 hrs by broth microdilution method; format: functional
Trichosporon asahii [10] = experiment: Antifungal activity against Trichosporon asahii 1188 after 24 hrs by broth microdilution method; format: functional; conditions: Trichosporon asahii, 1188, 24 h
Trichosporon asahii [11] = experiment: Antifungal activity against Trichosporon asahii 1188 after 48 hrs by broth microdilution method; format: functional; conditions: Trichosporon asahii, 1188, 48 h
Aspergillus fumigatus [12] = experiment: Antifungal activity against Aspergillus fumigatus 231 after 24 hrs by broth microdilution method; format: functional, organism-based; conditions: Aspergillus fumigatus, 231, 24 h
Aspergillus fumigatus [13] = experiment: Antifungal activity against Aspergillus fumigatus 231 after 48 hrs by broth microdilution method; format: functional, organism-based; conditions: Aspergillus fumigatus, 231, 48 h
Lichtheimia corymbifera [14] = experiment: Antifungal activity against Absidia corymbifera 272 after 24 hrs by broth microdilution method; format: functional, organism-based; conditions: Lichtheimia corymbifera, 272, 24 h
Lichtheimia corymbifera [15] = experiment: Antifungal activity against Absidia corymbifera 272 after 48 hrs by broth microdilution method; format: functional, organism-based; conditions: Lichtheimia corymbifera, 272, 48 h
[16] = system: Trichophyton mentagrophytes; experiment: Antifungal activity against Trichophyton mentagrophytes 445 after 72 hrs by broth microdilution method; format: functional, organism-based; conditions: Trichophyton mentagrophytes, 445, 72 h
[17] = system: Trichophyton mentagrophytes; experiment: Antifungal activity against Trichophyton mentagrophytes 445 after 120 hrs by broth microdilution method; format: functional, organism-based; conditions: Trichophyton mentagrophytes, 445, 120 h
[18] = Cytotoxicity against human HeLa cells assessed as cell viability at 30 uM after 48 hrs by MTT assay; format: cell-based; conditions: read-out: Activity
[19] = Cytotoxicity against human HuH7 cells assessed as cell viability at 30 uM after 48 hrs by MTT assay; format: cell-based, Huh-7; conditions: read-out: Activity
[20] = Cytotoxicity against human HepG2 cells assessed as cell viability at 30 uM after 48 hrs by MTT assay; format: cell-based; conditions: read-out: Activity
[21] = Cytotoxicity against MDCK2 cells assessed as cell viability at 30 uM after 48 hrs by MTT assay; format: cell-based, Canis lupus familiaris, MDCK-II; conditions: dog, read-out: Activity
HeLa = experiment: Cytotoxicity against human HeLa cells assessed as reduction in cell viability after 48 hrs by MTT assay; format: cell-based
[22] = Cytotoxicity against human HuH7 cells assessed as reduction in cell viability after 48 hrs by MTT assay; format: cell-based; conditions: Huh-7, 48 h
[23] = Cytotoxicity against MDCK2 cells assessed as reduction in cell viability after 48 hrs by MTT assay; format: cell-based; conditions: Canis lupus familiaris, MDCK-II
HepG2 = experiment: Cytotoxicity against human HepG2 cells assessed as reduction in cell viability after 48 hrs by MTT assay; format: cell-based; conditions: HepG2, 48 h
[24] = system: Mycobacterium tuberculosis; experiment: Antimycobacterial activity against Mycobacterium tuberculosis CNCTC My 331/88 after 14 days by micromethod; format: functional; conditions: CNCTC My 331/88, 336 h
[25] = system: Mycobacterium tuberculosis; experiment: Antimycobacterial activity against Mycobacterium tuberculosis CNCTC My 331/88 after 21 days by micromethod; format: functional; conditions: CNCTC My 331/88, 504 h
Mycobacterium avium [26] = experiment: Antimycobacterial activity against Mycobacterium avium CNCTC My 330/88 after 14 days by micromethod; format: functional; conditions: CNCTC My 330/88, 336 h
Mycobacterium avium [27] = experiment: Antimycobacterial activity against Mycobacterium avium CNCTC My 330/88 after 21 days by micromethod; format: functional; conditions: CNCTC My 330/88, 504 h
Mycobacterium kansasii [28] = experiment: Antimycobacterial activity against Mycobacterium kansasii CNCTC My 235/80 after 7 days by micromethod; format: functional; conditions: CNCTC My 235/80, 168 h
Mycobacterium kansasii [29] = experiment: Antimycobacterial activity against Mycobacterium kansasii CNCTC My 235/80 after 14 days by micromethod; format: functional; conditions: CNCTC My 235/80, 336 h
Mycobacterium kansasii [30] = experiment: Antimycobacterial activity against Mycobacterium kansasii CNCTC My 235/80 after 21 days by micromethod; format: functional; conditions: CNCTC My 235/80, 504 h
Mycobacterium kansasii [31] = experiment: Antimycobacterial activity against Mycobacterium kansasii 6509/96 after 7 days by micromethod; format: functional; conditions: 6509/96, 168 h
Mycobacterium kansasii [32] = experiment: Antimycobacterial activity against Mycobacterium kansasii 6509/96 after 14 days by micromethod; format: functional; conditions: 6509/96, 336 h
Mycobacterium kansasii [33] = experiment: Antimycobacterial activity against Mycobacterium kansasii 6509/96 after 21 days by micromethod; format: functional; conditions: 6509/96, 504 h
Staphylococcus aureus [34] = experiment: Antibacterial activity against Staphylococcus aureus ATCC 6538 after 24 hrs by broth microdilution method; format: functional; conditions: ATCC 6538, 24 h
Staphylococcus aureus [35] = experiment: Antibacterial activity against Staphylococcus aureus ATCC 6538 after 48 hrs by broth microdilution method; format: functional; conditions: ATCC 6538, 48 h
Staphylococcus aureus [36] = experiment: Antibacterial activity against methicillin-resistant Staphylococcus aureus H 5996/08 after 24 hrs by broth microdilution method; format: functional; conditions: H 5996/08, 24 h
Staphylococcus aureus [37] = experiment: Antibacterial activity against methicillin-resistant Staphylococcus aureus H 5996/08 after 48 hrs by broth microdilution method; format: functional; conditions: H 5996/08, 48 h
[38] = system: Staphylococcus epidermidis; experiment: Antibacterial activity against Staphylococcus epidermidis H 6966/08 after 24 hrs by broth microdilution method; format: functional; conditions: H 6966/08, 24 h
[39] = system: Staphylococcus epidermidis; experiment: Antibacterial activity against Staphylococcus epidermidis H 6966/08 after 48 hrs by broth microdilution method; format: functional; conditions: H 6966/08, 48 h
Enterococcus faecalis [40] = experiment: Antibacterial activity against Enterococcus faecalis J 14365/08 after 24 hrs by broth microdilution method; format: functional; conditions: J 14365/08, 24 h
Enterococcus faecalis [41] = experiment: Antibacterial activity against Enterococcus faecalis J 14365/08 after 48 hrs by broth microdilution method; format: functional; conditions: J 14365/08, 48 h
Escherichia coli [42] = experiment: Antibacterial activity against Escherichia coli ATCC 8739 after 24 hrs by broth microdilution method; format: functional; conditions: ATCC 8739, ATCC 8739, 24 h
Escherichia coli [43] = experiment: Antibacterial activity against Escherichia coli ATCC 8739 after 48 hrs by broth microdilution method; format: functional; conditions: ATCC 8739, ATCC 8739, 48 h
Klebsiella pneumoniae [44] = experiment: Antibacterial activity against Klebsiella pneumoniae D 11750/08 after 24 hrs by broth microdilution method; format: functional; conditions: D 11750/08, 24 h
Klebsiella pneumoniae [45] = experiment: Antibacterial activity against Klebsiella pneumoniae D 11750/08 after 48 hrs by broth microdilution method; format: functional; conditions: D 11750/08, 48 h
Klebsiella pneumoniae [46] = experiment: Antibacterial activity against extended spectrum beta-lactamase producing Klebsiella pneumoniae J 14368/08 after 24 hrs by broth microdilution method; format: functional; conditions: J 14368/08, 24 h
Klebsiella pneumoniae [47] = experiment: Antibacterial activity against extended spectrum beta-lactamase producing Klebsiella pneumoniae J 14368/08 after 48 hrs by broth microdilution method; format: functional; conditions: J 14368/08, 48 h
Pseudomonas aeruginosa [48] = experiment: Antibacterial activity against Pseudomonas aeruginosa ATCC 9027 after 24 hrs by broth microdilution method; format: functional; conditions: ATCC 9027, 24 h

O=[N+]([O-])c1ccc(C[Se]c2nnnn2C2CCCCC2)c([N+](=O)[O-])c1
IC95 (Pseudomonas aeruginosa [1]): > 500 µM
IC80 (Candida albicans [2]): 15.6 µM
IC80 (Candida albicans [3]): 15.6 µM
IC80 (Candida tropicalis [4]): > 500 µM
IC80 (Candida tropicalis [5]): > 500 µM
IC80 (Pichia kudriavzevii [6]): > 500 µM
IC80 (Pichia kudriavzevii [7]): > 500 µM
IC80 (Nakaseomyces glabratus [8]): 62.5 µM
IC80 (Nakaseomyces glabratus [9]): 62.5 µM
IC80 (Trichosporon asahii [10]): 62.5 µM
IC80 (Trichosporon asahii [11]): 250 µM
IC50 (Aspergillus fumigatus [12]): > 500 µM
IC50 (Aspergillus fumigatus [13]): > 500 µM
IC50 (Lichtheimia corymbifera [14]): 500 µM
IC50 (Lichtheimia corymbifera [15]): > 500 µM
IC50 [16]: 31.2 µM
IC50 [17]: 31.2 µM
viability at 48 h, 30 µM [18]: 32%
viability at 48 h, 30 µM [19]: 49%
viability at 48 h, 30 µM [20]: 4%
viability at 48 h, 30 µM [21]: 11%
IC50 (HeLa): 29 µM
IC50 [22]: > 30 µM
IC50 [23]: < 7.5 µM
IC50 (HepG2): 11 µM
MIC [24]: 4 µM (≈ 1.65 µg/mL)
MIC [25]: 8 µM (≈ 3.29 µg/mL)
MIC (Mycobacterium avium [26]): 32 µM (≈ 13.2 µg/mL)
MIC (Mycobacterium avium [27]): 32 µM (≈ 13.2 µg/mL)
MIC (Mycobacterium kansasii [28]): 4 µM (≈ 1.65 µg/mL)
MIC (Mycobacterium kansasii [29]): 16 µM (≈ 6.58 µg/mL)
MIC (Mycobacterium kansasii [30]): 16 µM (≈ 6.58 µg/mL)
MIC (Mycobacterium kansasii [31]): 16 µM (≈ 6.58 µg/mL)
MIC (Mycobacterium kansasii [32]): 62 µM (≈ 25.5 µg/mL)
MIC (Mycobacterium kansasii [33]): 62 µM (≈ 25.5 µg/mL)
IC95 (Staphylococcus aureus [34]): 31.2 µM
IC95 (Staphylococcus aureus [35]): 31.2 µM
IC95 (Staphylococcus aureus [36]): 31.2 µM
IC95 (Staphylococcus aureus [37]): 31.2 µM
IC95 [38]: 15.6 µM
IC95 [39]: 15.6 µM
IC95 (Enterococcus faecalis [40]): 15.6 µM
IC95 (Enterococcus faecalis [41]): 15.6 µM
IC95 (Escherichia coli [42]): > 500 µM
IC95 (Escherichia coli [43]): > 500 µM
IC95 (Klebsiella pneumoniae [44]): > 500 µM
IC95 (Klebsiella pneumoniae [45]): > 500 µM
IC95 (Klebsiella pneumoniae [46]): > 500 µM
IC95 (Klebsiella pneumoniae [47]): > 500 µM
IC95 (Pseudomonas aeruginosa [48]): > 500 µM

O=[N+]([O-])c1cc(CSc2nnnn2-c2ccc(Cl)c(Cl)c2)cc([N+](=O)[O-])c1
IC95 (Pseudomonas aeruginosa [1]): > 125 µM
IC80 (Candida albicans [2]): > 125 µM
IC80 (Candida albicans [3]): > 125 µM
IC80 (Candida tropicalis [4]): > 125 µM
IC80 (Candida tropicalis [5]): > 125 µM
IC80 (Pichia kudriavzevii [6]): > 125 µM
IC80 (Pichia kudriavzevii [7]): > 125 µM
IC80 (Nakaseomyces glabratus [8]): > 125 µM
IC80 (Nakaseomyces glabratus [9]): > 125 µM
IC80 (Trichosporon asahii [10]): > 125 µM
IC80 (Trichosporon asahii [11]): > 125 µM
IC50 (Aspergillus fumigatus [12]): > 125 µM
IC50 (Aspergillus fumigatus [13]): > 125 µM
IC50 (Lichtheimia corymbifera [14]): > 125 µM
IC50 (Lichtheimia corymbifera [15]): > 125 µM
IC50 [16]: > 125 µM
IC50 [17]: > 125 µM
viability at 48 h, 30 µM [18]: 67%
viability at 48 h, 30 µM [19]: 90%
viability at 48 h, 30 µM [20]: 42%
viability at 48 h, 30 µM [21]: 53%
IC50 (HeLa): > 30 µM
IC50 [22]: > 30 µM
IC50 [23]: > 30 µM
IC50 (HepG2): 26 µM
MIC [24]: 1 µM (≈ 0.427 µg/mL)
MIC [25]: 1 µM (≈ 0.427 µg/mL)
MIC (Mycobacterium avium [26]): 8 µM (≈ 3.42 µg/mL)
MIC (Mycobacterium avium [27]): 16 µM (≈ 6.84 µg/mL)
MIC (Mycobacterium kansasii [28]): 1 µM (≈ 0.427 µg/mL)
MIC (Mycobacterium kansasii [29]): 1 µM (≈ 0.427 µg/mL)
MIC (Mycobacterium kansasii [30]): 2 µM (≈ 0.854 µg/mL)
MIC (Mycobacterium kansasii [31]): 1 µM (≈ 0.427 µg/mL)
MIC (Mycobacterium kansasii [32]): 2 µM (≈ 0.854 µg/mL)
MIC (Mycobacterium kansasii [33]): 4 µM (≈ 1.71 µg/mL)
IC95 (Staphylococcus aureus [34]): > 125 µM
IC95 (Staphylococcus aureus [35]): > 125 µM
IC95 (Staphylococcus aureus [36]): > 125 µM
IC95 (Staphylococcus aureus [37]): > 125 µM
IC95 [38]: > 125 µM
IC95 [39]: > 125 µM
IC95 (Enterococcus faecalis [40]): > 125 µM
IC95 (Enterococcus faecalis [41]): > 125 µM
IC95 (Escherichia coli [42]): > 125 µM
IC95 (Escherichia coli [43]): > 125 µM
IC95 (Klebsiella pneumoniae [44]): > 125 µM
IC95 (Klebsiella pneumoniae [45]): > 125 µM
IC95 (Klebsiella pneumoniae [46]): > 125 µM
IC95 (Klebsiella pneumoniae [47]): > 125 µM
IC95 (Pseudomonas aeruginosa [48]): > 125 µM
